Test results published in article PMC6329768, “Dinitroimidazoles as bifunctional bioconjugation reagents for protein functionalization and peptide macrocyclization” (Nature Communications, 2019).
Each block holds one compound with its values, some of them ahead of it.

Tests used:
[1] = chemical stability of peptide conjugates under acidic, basic or oxidative conditions (HPLC); assay type: physicochemical; conditions: 10 h, conjugate 0.05 mM, three independent experiments; for stability of conjugate at pH 10.0: aqueous buffer pH 10.0, 37 °C
Method: The conversion values represent means ± SDs (standard deviations) of three independent experiments The stability of protein conjugates is a major concern for bioconjugation reagents. […] Next, we investigated the stability of the (4-nitroimidazole)-thiol linkage. Thiol-maleimide and thiol-arylation conjugates are reported to degrade under acidic, basic, or oxidative conditions[25],[30],[31]. We incubated conjugate 1c' in aqueous buffer at pH 2.0, pH 10.0, or in the presence of 10 mM H2O2 for 10 h at 37 °C.
Next, we explored the application of 1,4-DNIms in Lys bioconjugation of peptides. […] HRMS analysis and NMR analysis determined that product 1d is a ε-(4-nitroimidazole)-Lys derivative (Fig. 6a, Supplementary Figs. 28–32). Next, we explored the chemoselectivity of compound 1a in DMSO via incubation with nucleophilic amino acids, including Tyr, Ser, Trp, His, Asp, and Arg. […] To sum up, 1,4-DNIms react specifically with cysteine thiols under neutral aqueous conditions, and modify lysine ε-amines through a distinct mechanism with high selectivity in organic solvents in the absence of thiols by generating stable conjugates.
Supplementary Figure 15. Stability of 4-nitroimidazole-ACA adduct 1c’ (0.05 mM) in buffers at pH 2.0, pH 10.0, or in 10 mM H2O2 at 37 °C for 10 h before subjected to HPLC analysis. Gradient used:isocratic 2% CH3CN for 5 min, then 2% to 90% CH3CN in 25 min, then isocratic 90% CH3CN for 5 min, then 90% to 2% CH3CN in 5 min. Monitor wavelength: 365 nm.
Supplementary Figure 16. Stability of NEM-2a’ conjugate (0.05 mM) in buffers at pH 2.0 and 10.0. NEM-2a’ conjugate was incubated at pH 2.0 and pH 10.0 at 37 °C for 10 h before subjected to HPLC analysis. Gradient used:isocratic 2% CH3CN for 5 min, then 2% to 90% CH3CN in 25 min, then isocratic 90% CH3CN for 5 min, then 90% to 2% CH3CN in 5 min. Monitor wavelength: 254 nm. […]

[2] = Cys-Cys side-chain stapling of unprotected peptides with bis(1,4-dinitroimidazole) linker 5a (bis[(1,4-dinitroimidazol-2-yl)methyl] succinate, 1.0 eq) by cine-substitution at imidazole C5; sodium ascorbate 2.0 mM; conditions: the molecule shown is the open-chain precursor, 100 mM HEPES buffer pH 7.0, 1.0 mM, 25.0 °C
[3] = Lys-Lys (or Dap-Dap) side-chain stapling of unprotected peptides with bis(1,4-dinitroimidazole) linker 5a (bis[(1,4-dinitroimidazol-2-yl)methyl] succinate, 1.2 mM), DIEA 4.0 mM; ANRORC ring-opening/ring-closing gives 1-alkyl-4-nitroimidazole linkages; conditions: the molecule shown is the open-chain precursor, DMSO (ca. 84%, with ca. 10% water and 6% MeCN from stock solutions), 1.0 mM, 37.0 °C, 2.0 h
[4] = hydrolytic stability of reagents in PBS buffer pH 7.4 (HPLC); assay type: physicochemical; conditions: 100 mM PBS buffer, pH 7.4, 37 °C, HPLC analysis
Method: Stability of N-phenyl maleimide in 100 mM PBS buffer,
pH 7.4 at 37 °C for indicated time before subjected to HPLC analysis.
at 37 °C for indicated time before subjected to HPLC analysis.

[5] = solubility in aqueous solutions; assay type: physicochemical
Text: Lysines are rich in natural proteins and usually solvent-exposed on protein surface, therefore representing a major competition.

stability of conjugate under oxidative conditions ([1]; 10 mM H2O2 in Na2CO3 buffer at pH 8.0, 37 °C): did not decompose
stability of conjugate at pH 2.0 ([1]; aqueous buffer pH 2.0, 37 °C): did not decompose
stability of conjugate at pH 10.0 [1]: did not decompose
Compound: COC(=O)[C@H](C)NC(=O)[C@H](CSc1[nH]cnc1[N+](=O)[O-])NC(=O)[C@H](C)NC(C)=O [1c]

Compound: CC(=O)N[C@@H](C)C(=O)N[C@@H](CSc1[nH]c(COC(=O)CCC(=O)OCc2nc([N+](=O)[O-])cn2[N+](=O)[O-])nc1[N+](=O)[O-])C(=O)N[C@@H](C)C(=O)N[C@@H](CCCNC(=N)N)C(=O)NCC(=O)N[C@@H](Cc1c[nH]c2ccccc12)C(=O)NCC(=O)N[C@@H](CS)C(=O)N[C@@H](C)C(=O)O [Ac-Ala-Cys-Ala-Arg-Gly-Trp-Gly-Cys-Ala-OH]
ring closure, conversion by HPLC ([2]; 37-membered ring, 0.167 h): 95%

Compound: CC(=O)N[C@@H](C)C(=O)N[C@@H](CSc1[nH]c(COC(=O)CCC(=O)OCc2nc([N+](=O)[O-])cn2[N+](=O)[O-])nc1[N+](=O)[O-])C(=O)N[C@@H](C)C(=O)N[C@H](C(=O)N[C@@H](CC(N)=O)C(=O)N[C@@H](CS)C(=O)N[C@@H](C)C(=O)O)[C@@H](C)O [Ac-Ala-Cys-Ala-Thr-Asn-Cys-Ala-OH]
ring closure, conversion by HPLC ([2]; 31-membered ring, 0.167 h): 95%

Compound: CC(=O)N[C@@H](C)C(=O)N[C@@H](CSc1[nH]c(COC(=O)CCC(=O)OCc2nc([N+](=O)[O-])cn2[N+](=O)[O-])nc1[N+](=O)[O-])C(=O)NCC(=O)N[C@@H](CS)C(=O)N[C@@H](C)C(=O)O [Ac-Ala-Cys-Gly-Cys-Ala-OH]
ring closure, conversion by HPLC ([2]; 25-membered ring, 0.167 h): 95%

Compound: CC(=O)N[C@@H](C)C(=O)N[C@@H](CSc1[nH]c(COC(=O)CCC(=O)OCc2nc([N+](=O)[O-])cn2[N+](=O)[O-])nc1[N+](=O)[O-])C(=O)NCC(=O)N[C@@H](Cc1ccccc1)C(=O)N[C@@H](CCCCN)C(=O)N[C@@H](C)C(=O)N[C@@H](CS)C(=O)NCC(=O)N[C@H](C(=O)N[C@@H](CCCCN)C(=O)O)C(C)C [Ac-Ala-Cys-Gly-Phe-Lys-Ala-Cys-Gly-Val-Lys-OH]
ring closure, conversion by HPLC ([2]; 34-membered ring, 0.5 min): 100%

Compound: CC(=O)N[C@@H](C)C(=O)N[C@@H](Cn1cc([N+](=O)[O-])nc1COC(=O)CCC(=O)OCc1nc([N+](=O)[O-])cn1[N+](=O)[O-])C(=O)N[C@H](C(=O)N[C@H](C(=O)N[C@@H](Cc1ccccc1)C(=O)N[C@@H](CC(N)=O)C(=O)N[C@@H](CC(C)C)C(=O)N[C@@H](Cc1c[nH]c2ccccc12)C(=O)N[C@@H](CN)C(=O)N[C@@H](C)C(=O)O)[C@@H](C)O)[C@@H](C)O [Ac-Ala-Dap-Thr-Thr-Phe-Asn-Leu-Trp-Dap-Ala-OH]
ring closure, conversion by HPLC ([3]; 36-membered ring): 95%

Compound: CC(=O)N[C@@H](C)C(=O)N[C@@H](CCCCn1cc([N+](=O)[O-])nc1COC(=O)CCC(=O)OCc1nc([N+](=O)[O-])cn1[N+](=O)[O-])C(=O)N[C@@H](Cc1ccccc1)C(=O)N[C@@H](CC(N)=O)C(=O)N[C@@H](CC(C)C)C(=O)N[C@@H](Cc1c[nH]c2ccccc12)C(=O)N[C@@H](CCCCN)C(=O)N[C@@H](C)C(=O)O [Ac-Ala-Lys-Phe-Asn-Leu-Trp-Lys-Ala-OH]
ring closure, conversion by HPLC ([3]; 36-membered ring): 90%

Compound: CC(=O)N[C@@H](C)C(=O)N[C@@H](CCCCn1cc([N+](=O)[O-])nc1COC(=O)CCC(=O)OCc1nc([N+](=O)[O-])cn1[N+](=O)[O-])C(=O)N[C@H](C(=O)N[C@@H](Cc1ccccc1)C(=O)N[C@@H](CC(N)=O)C(=O)N[C@@H](CCCCN)C(=O)N[C@@H](C)C(=O)O)[C@@H](C)O [Ac-Ala-Lys-Thr-Phe-Asn-Lys-Ala-OH]
ring closure, conversion by HPLC ([3]; 33-membered ring): 95%

Compound: CC(=O)N[C@@H](CC(C)C)C(=O)N[C@H](C(=O)N[C@@H](Cc1ccccc1)C(=O)N[C@@H](CCCCn1cc([N+](=O)[O-])nc1COC(=O)CCC(=O)OCc1nc([N+](=O)[O-])cn1[N+](=O)[O-])C(=O)N[C@@H](Cc1c[nH]cn1)C(=O)N[C@@H](Cc1ccc(O)cc1)C(=O)N[C@@H](Cc1c[nH]c2ccccc12)C(=O)N[C@@H](C)C(=O)N[C@@H](CCC(N)=O)C(=O)N[C@@H](CC(C)C)C(=O)N[C@@H](CCCCN)C(=O)N[C@@H](CO)C(=O)O)[C@@H](C)O [Ac-Leu-Thr-Phe-Lys-His-Tyr-Trp-Ala-Gln-Leu-Lys-Ser-OH]
ring closure, conversion by HPLC ([3]; 42-membered ring): 90%

Compound: N=C(N)NCCC[C@H](NC(=O)[C@H](CSc1[nH]c(COC(=O)CCC(=O)OCc2nc([N+](=O)[O-])cn2[N+](=O)[O-])nc1[N+](=O)[O-])NC(=O)[C@@H](N)Cc1ccccc1)C(=O)NCC(=O)N[C@@H](CC(=O)O)C(=O)N[C@@H](CS)C(=O)O [H-Phe-Cys-Arg-Gly-Asp-Cys-OH]
ring closure, conversion by HPLC ([2]; 31-membered ring, 0.167 h): 90%

stability of conjugate at pH 10.0 [1]: complete hydrolysis
Compound: CCN1C(=O)CC(SC[C@H](NC(=O)[C@H](C)NC(C)=O)C(=O)N[C@@H](C)C(=O)O)C1=O (stereo partly shown) [N-ethyl maleimide conjugate of 2a′]

Compound: O=C1C=CC(=O)N1c1ccccc1 [N-phenyl maleimide]
time to complete hydrolysis (yielding the maleamic acid) [4]: ≤ 2 h

solubility in aqueous solutions [5]: < 50 µM
Compound: O=S(=O)(c1c(F)c(F)c(F)c(F)c1F)c1c(F)c(F)c(F)c(F)c1F [pf1, 6,6′-sulfonylbis(1,2,3,4,5-pentafluorobenzene)]

Compound: Ac-Ala-Lys-Ser-Gln-Val-Thr-Phe-Asn-Leu-Trp-Arg-Met-Gln-Lys-Ala-OH
ring closure, conversion by HPLC ([3]; 57-membered ring): 92%
